Key:
[1] = target: T1, human LXRβ (Homo sapiens, UniProt P55055); experiment: Ligand-binding test procedure for human LXRβ (3H T0901317 tracer, flash plates)
T1 construct: biotin (biotinylated); made in house; host or cells: E. coli (crude extract)
T1 sequence (P55055 1-460): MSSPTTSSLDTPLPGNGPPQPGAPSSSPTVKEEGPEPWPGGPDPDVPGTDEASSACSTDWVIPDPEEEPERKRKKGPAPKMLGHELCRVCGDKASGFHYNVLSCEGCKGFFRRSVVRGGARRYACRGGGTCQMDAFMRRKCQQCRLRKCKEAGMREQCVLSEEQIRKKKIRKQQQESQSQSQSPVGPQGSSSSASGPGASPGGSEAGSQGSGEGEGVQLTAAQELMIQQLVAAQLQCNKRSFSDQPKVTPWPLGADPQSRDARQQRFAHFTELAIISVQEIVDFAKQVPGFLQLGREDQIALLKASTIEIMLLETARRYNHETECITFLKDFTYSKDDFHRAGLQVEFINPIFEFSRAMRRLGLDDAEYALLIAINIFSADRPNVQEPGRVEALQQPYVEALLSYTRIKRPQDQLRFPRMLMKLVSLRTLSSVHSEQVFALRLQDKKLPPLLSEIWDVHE
Method: Receptor source: E. coli extracted from cells expressing biotinylated hLXRβ. Extract was made in a similar buffer as above, but with 50 mM TRIS.
Washed streptavidin and coated flash plates with wash buffer. Diluted receptor extract to give Bmax ˜4000 cpm and add to the wells. Wrapped the plates in aluminum foil and stored them at +4° C. overnight.
(§1) Made a dilution series in DMSO of the test ligands. Made a 5 nM solution of the radioactive tracer in buffer. Mixed 250 μl diluted tracer with 5 μl of the test ligand from each concentration of the dilution series. Washed the receptor-coated flash plates. Added 200 μl per well of the ligand/radiolabel mixture to the receptor-coated flash plates. Wrapped the plates in aluminum foil and incubate at +4° C. over night.
Aspirated wells, and washed the flashed plates. Sealed the plate. Measured the remaining radioactivity in the plate.

[2] = target: T2, human LXRα (Homo sapiens, UniProt Q13133); experiment: Ligand-binding test procedure for human LXRα (3H T0901317 tracer, flash plates); details: biotinylated hLXRα, tracer 3H T0901317
T2 construct: biotin (biotinylated); made in house; host or cells: E. coli (crude extract)
T2 sequence (Q13133 1-447): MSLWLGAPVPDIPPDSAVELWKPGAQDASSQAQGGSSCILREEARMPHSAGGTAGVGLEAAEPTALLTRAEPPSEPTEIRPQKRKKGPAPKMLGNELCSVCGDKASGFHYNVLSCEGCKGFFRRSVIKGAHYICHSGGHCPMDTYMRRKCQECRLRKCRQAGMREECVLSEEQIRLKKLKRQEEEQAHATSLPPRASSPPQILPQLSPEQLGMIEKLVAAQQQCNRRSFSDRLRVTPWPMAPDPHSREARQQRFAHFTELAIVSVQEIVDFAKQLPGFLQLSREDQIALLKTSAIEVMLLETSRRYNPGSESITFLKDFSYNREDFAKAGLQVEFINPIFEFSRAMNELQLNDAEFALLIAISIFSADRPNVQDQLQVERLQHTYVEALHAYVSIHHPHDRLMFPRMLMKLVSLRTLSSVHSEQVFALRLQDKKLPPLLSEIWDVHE
Method: Receptor source: E. coli extract from cells expressing biotinylated hLXRcc. Extract was made in a similar buffer as above, but with 50 mM TRIS.
Washed streptavidin and coated flash plates with wash buffer. Diluted receptor extract to give Bmax ˜4000 cpm and add to the wells. Wrapped the plates in aluminum foil and stored them at +4° C. over night.
as §1
Aspirated wells, and wash the flashed plates. Sealed the plate. Measured the remaining radioactivity in the plate.

IC50 [1] [nM] | IC50 [2] [nM] | Structure (SMILES)
301 | 3690 | CCS(=O)(=O)c1cc(F)cc(Oc2ccc(-n3c(C)nc4c(C(F)(F)F)cccc43)c(C)c2)c1 [Example 99]
198 | 2500 | CCS(=O)(=O)c1cccc(Oc2cccc(-n3c(C(F)(F)F)nc4c(C(F)(F)F)cccc43)c2)c1 [Example 77, 1-{3-[3-(ethylsulfonyl)phenoxy]phenyl}-2,4-bis(trifluoromethyl)-1H-benzimidazole]
> 1000 | > 1000 | Cc1nc2c(C(F)(F)F)cccc2n1-c1cccc(Oc2ccccc2S(C)(=O)=O)c1 [Example 12, 2-methyl-1-{3-[2-(methylsulfonyl)phenoxy]phenyl}-4-(trifluoromethyl)-1H-benzimidazole]
2620 | 16000 | Cc1cc(Oc2cc(F)cc(S(C)(=O)=O)c2)ccc1-n1cnc2c(C(F)(F)F)cccc21 [Example 96, 1-{4-[3-fluoro-5-(methylsulfonyl)phenoxy]-2-methylphenyl}-4-(trifluoromethyl)-1H-benzimidazole]
1230 | 3990 | CS(=O)(=O)c1cc(F)cc(Oc2ccc(-n3cnc4c(C(F)(F)F)cccc43)c(Cl)c2)c1 [Example 106, 1-{2-chloro-4-[3-fluoro-5-(methylsulfonyl)phenoxy]phenyl}-4-(trifluoromethyl)-1H-benzimidazole]
1230 | > 1000 | CCc1nc2c(C(F)(F)F)cccc2n1-c1ccc(Oc2cccc(S(=O)(=O)CC)c2)cc1 [Example 68, 2-ethyl-1-{4-[3-(ethylsulfonyl)phenoxy]phenyl}-4-(trifluoromethyl)-1H-benzimidazole]
512 | 4700 | CS(=O)(=O)c1cc(F)cc(Oc2ccc(-n3c(C(F)(F)F)nc4c(C(F)(F)F)cccc43)cc2)c1 [Example 72, 1-{4-[3-fluoro-5-(methylsulfonyl)phenoxy]phenyl}-2,4-bis(trifluoromethyl)-1H-benzimidazole]
110 | 1500 | CS(=O)(=O)c1cccc(COc2ccc(Cl)c(-n3cnc4c(C(F)(F)F)cccc43)c2)c1 [Example 84, 1-(2-chloro-5-{[3-(methylsulfonyl)benzyl]oxy}phenyl)-4-(trifluoromethyl)-1H-benzimidazole]
1.7 | 8.4 | Cc1nc2c(C(F)(F)F)cccc2n1-c1ccc(Oc2cccc(S(C)(=O)=O)c2)cc1 [Example 64, 2-methyl-1-{4-[3-(methylsulfonyl)phenoxy]phenyl}-4-(trifluoromethyl)-1H-benzimidazole]
435 | 2950 | Cc1nc2c(C(F)(F)F)cccc2n1-c1cccc(Oc2ccc(S(C)(=O)=O)cc2)c1 [Example 14, 2-methyl-1-{3-[4-(methylsulfonyl)phenoxy]phenyl}-4-(trifluoromethyl)-1H-benzimidazole]
> 1000 | > 1000 | Cc1nc2c(C(F)(F)F)cccc2n1-c1ccc(OCc2cccc(S(C)(=O)=O)c2)cc1 [Example 87, 2-methyl-1(4-{[3-(methylsulfonyl)benzyl]oxy}phenyl)-4-(trifluoromethyl)-1H-benzimidazole]
17 | 85 | CCS(=O)(=O)c1ccc(Oc2cccc(-n3c(C)nc4c(Cl)cccc43)c2)cc1 [Example 49, 4-chloro-1-{3-[4-(ethylsulfonyl)phenoxy]phenyl}-2-methyl-1H-benzimidazole]
309 | 2500 | Cc1nc2c(Cl)cccc2n1-c1cc(Oc2ccccc2S(C)(=O)=O)ccc1Cl [Example 63, 4-chloro-1-{2-chloro-5-[2-(methylsulfonyl)phenoxy]phenyl}-2-methyl-1H-benzimidazole]
1900 | > 1000 | Cc1nc2c(C(F)(F)F)cccc2n1-c1cccc(Oc2ccccc2S(=O)(=O)CCCO)c1 [Example 13, 3-[(2-{3-[2-methyl-4-(trifluoromethyl)-1H-benzimidazol-1-yl]phenoxy}phenyl)sulfonyl]propan-1-ol]

Source: patent publication US20110034526A1, “Benzimidazole Compounds” (Wyeth LLC, priority 2007, published 2011)
